Consider 18 compounds from patent publication US8580794B2 (AbbVie Inc., priority 2009, dated 2013).

A value given as a limit tells only on which side of the number the result lay.

Usually Ki stands for the dissociation constant of the complex between target and ligand, obtained from inhibition or displacement.

The test has as its target GST-Bc1-2 (Homo sapiens, UniProt P10415). In words: Time Resolved-Fluorescence Resonance Energy Transfer (TR-FRET) Bcl-2 binding assay with F-Bak peptide probe. The conditions noted are these: GST-Bcl-2 1 nM, F-Bak probe 100 nM, Tb-anti-GST 1 nM; '<' = below limit of detection; read-out: TR-FRET Bcl-2 Binding Ki. On the technique in general: TR-FRET usually uses a lanthanide donor and a delayed reading to cut background.

Sequence of GST-Bc1-2 (P10415 whole entry): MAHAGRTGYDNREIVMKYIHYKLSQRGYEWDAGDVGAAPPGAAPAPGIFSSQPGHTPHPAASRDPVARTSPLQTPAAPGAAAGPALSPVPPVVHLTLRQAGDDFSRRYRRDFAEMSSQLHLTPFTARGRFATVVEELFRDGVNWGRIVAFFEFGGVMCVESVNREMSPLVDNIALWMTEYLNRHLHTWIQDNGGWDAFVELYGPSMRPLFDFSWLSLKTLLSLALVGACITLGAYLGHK

In the case of `CC1(C)CCC(CN2CCN(c3ccc(C(=O)NS(=O)(=O)c4ccc(NC[C@H]5CC[C@H](O)C5)c([N+](=O)[O-])c4)c(Oc4cnc5[nH]ccc5c4)c3)CC2)=C(c2ccc(Cl)cc2)C1` [Example 157, 4-(4-{[2-(4-chlorophenyl)-4,4-dimethylcyclohex-1-en-1-yl]methyl}piperazin-1-yl)-N-{[4-({[(1S,3S)-3-hydroxycyclopentyl]methyl}amino)-3-nitrophenyl]sulfonyl}-2-(1H-pyrrolo[2,3-b]pyridin-5-yloxy)benzamide], the inhibition constant (Ki) was less than 0.01 nM.
Then `CC1(C)CCC(CN2CCN(c3ccc(C(=O)NS(=O)(=O)c4ccc(NC[C@H]5CC[C@@H](O)C5)c([N+](=O)[O-])c4)c(Oc4cnc5[nH]ccc5c4)c3)CC2)=C(c2ccc(Cl)cc2)C1` [Example 158, 4-(4-{[2-(4-chlorophenyl)-4,4-dimethylcyclohex-1-en-1-yl]methyl}piperazin-1-yl)-N-{[4-({[(1S,3R)-3-hydroxycyclopentyl]methyl}amino)-3-nitrophenyl]sulfonyl}-2-(1H-pyrrolo[2,3-b]pyridin-5-yloxy)benzamide], with less than 0.01 nM; and `CC1(C)CCC(CN2CCN(c3ccc(C(=O)NS(=O)(=O)c4ccc(NC[C@@H]5CC[C@H](O)C5)c([N+](=O)[O-])c4)c(Oc4cnc5[nH]ccc5c4)c3)CC2)=C(c2ccc(Cl)cc2)C1` [Example 159, 4-(4-{[2-(4-chlorophenyl)-4,4-dimethylcyclohex-1-en-1-yl]methyl}piperazin-1-yl)-N-{[4-({[(1R,3S)-3-hydroxycyclopentyl]methyl}amino)-3-nitrophenyl]sulfonyl}-2-(1H-pyrrolo[2,3-b]pyridin-5-yloxy)benzamide], with less than 0.01 nM; and `CC1(C)CCC(CN2CCN(c3ccc(C(=O)NS(=O)(=O)c4ccc(N[C@H]5CCCNC5=O)c([N+](=O)[O-])c4)c(Oc4cnc5[nH]ccc5c4)c3)CC2)=C(c2ccc(Cl)cc2)C1` [Example 160, 4-(4-{[2-(4-chlorophenyl)-4,4-dimethylcyclohex-1-en-1-yl]methyl}piperazin-1-yl)-N-[(3-nitro-4-{[(3S)-2-oxopiperidin-3-yl]amino}phenyl)sulfonyl]-2-(1H-pyrrolo[2,3-b]pyridin-5-yloxy)benzamide], with less than 0.01 nM.
Then `CC1(C)CCC(CN2CCN(c3ccc(C(=O)NS(=O)(=O)c4ccc(NCC5CN(C(CF)CF)C5)c([N+](=O)[O-])c4)c(Oc4cnc5[nH]ccc5c4)c3)CC2)=C(c2ccc(Cl)cc2)C1` [Example 161, 4-(4-{[2-(4-chlorophenyl)-4,4-dimethylcyclohex-1-en-1-yl]methyl}piperazin-1-yl)-N-({4-[({1-[2-fluoro-1-(fluoromethyl)ethyl]azetidin-3-yl}methyl)amino]-3-nitrophenyl}sulfonyl)-2-(1H-pyrrolo[2,3-b]pyridin-5-yloxy)benzamide], with less than 0.01 nM; and `CC1(C)CCC(CN2CCN(c3ccc(C(=O)NS(=O)(=O)c4ccc(NCC5CN(C6COC6)C5)c([N+](=O)[O-])c4)c(Oc4cnc5[nH]ccc5c4)c3)CC2)=C(c2ccc(Cl)cc2)C1` [Example 162, 4-(4-{[2-(4-chlorophenyl)-4,4-dimethylcyclohex-1-en-1-yl]methyl}piperazin-1-yl)-N-[(3-nitro-4-{[(1-oxetan-3-ylazetidin-3-yl)methyl]amino}phenyl)sulfonyl]-2-(1H-pyrrolo[2,3-b]pyridin-5-yloxy)benzamide], with less than 0.01 nM; and `CC1(C)CCC(CN2CCN(c3ccc(C(=O)NS(=O)(=O)c4ccc(NCC5CCN(C6COC6)CC5)c([N+](=O)[O-])c4)c(Oc4cnc5[nH]ccc5c4)c3)CC2)=C(c2ccc(Cl)cc2)C1` [Example 163, 4-(4-{[2-(4-chlorophenyl)-4,4-dimethylcyclohex-1-en-1-yl]methyl}piperazin-1-yl)-N-[(3-nitro-4-{[(1-oxetan-3-ylpiperidin-4-yl)methyl]amino}phenyl)sulfonyl]-2-(1H-pyrrolo[2,3-b]pyridin-5-yloxy)benzamide], with less than 0.01 nM.
On to `CC1(C)CCC(CN2CCN(c3ccc(C(=O)NS(=O)(=O)c4ccc(NCC5CCN(C6CC6)CC5)c([N+](=O)[O-])c4)c(Oc4cnc5[nH]ccc5c4)c3)CC2)=C(c2ccc(Cl)cc2)C1` [Example 164, 4-(4-{[2-(4-chlorophenyl)-4,4-dimethylcyclohex-1-en-1-yl]methyl}piperazin-1-yl)-N-[(4-{[(1-cyclopropylpiperidin-4-yl)methyl]amino}-3-nitrophenyl)sulfonyl]-2-(1H-pyrrolo[2,3-b]pyridin-5-yloxy)benzamide], for which the Ki was less than 0.01 nM.
Then `CC1(C)CCC(CN2CCN(c3ccc(C(=O)NS(=O)(=O)c4ccc(NCC5CN(CCF)CCO5)c([N+](=O)[O-])c4)c(Oc4cnc5[nH]ccc5c4)c3)CC2)=C(c2ccc(Cl)cc2)C1` (stereo not drawn) [Example 165, 4-(4-{[2-(4-chlorophenyl)-4,4-dimethylcyclohex-1-en-1-yl]methyl}piperazin-1-yl)-N-{[4-({[4-(2-fluoroethyl)morpholin-2-yl]methyl}amino)-3-nitrophenyl]sulfonyl}-2-(1H-pyrrolo[2,3-b]pyridin-5-yloxy)benzamide], with less than 0.01 nM.
The figure for `CC1(C)CCC(CN2CCN(c3ccc(C(=O)NS(=O)(=O)c4ccc(NCC5CN(CC(F)F)CCO5)c([N+](=O)[O-])c4)c(Oc4cnc5[nH]ccc5c4)c3)CC2)=C(c2ccc(Cl)cc2)C1` (stereo not drawn) [Example 166, 4-(4-{[2-(4-chlorophenyl)-4,4-dimethylcyclohex-1-en-1-yl]methyl}piperazin-1-yl)-N-{[4-({[4-(2,2-difluoroethyl)morpholin-2-yl]methyl}amino)-3-nitrophenyl]sulfonyl}-2-(1H-pyrrolo[2,3-b]pyridin-5-yloxy)benzamide] is less than 0.01 nM.
The figure for `CC1(C)CCC(CN2CCN(c3ccc(C(=O)NS(=O)(=O)c4ccc(OCC5(F)CCN(C6COC6)CC5)c([N+](=O)[O-])c4)c(Oc4cnc5[nH]ccc5c4)c3)CC2)=C(c2ccc(Cl)cc2)C1` [Example 167, 4-(4-{[2-(4-chlorophenyl)-4,4-dimethylcyclohex-1-en-1-yl]methyl}piperazin-1-yl)-N-({4-[(4-fluoro-1-oxetan-3-ylpiperidin-4-yl)methoxy]-3-nitrophenyl}sulfonyl)-2-(1H-pyrrolo[2,3-b]pyridin-5-yloxy)benzamide] is less than 0.01 nM; for `CC1(C)CCC(CN2CCN(c3ccc(C(=O)NS(=O)(=O)c4ccc(OC[C@@H]5CC(F)(F)CN5C5COC5)c([N+](=O)[O-])c4)c(Oc4cnc5[nH]ccc5c4)c3)CC2)=C(c2ccc(Cl)cc2)C1` [Example 168, 4-(4-{[2-(4-chlorophenyl)-4,4-dimethylcyclohex-1-en-1-yl]methyl}piperazin-1-yl)-N-[(4-{[(2S)-4,4-difluoro-1-oxetan-3-ylpyrrolidin-2-yl]methoxy}-3-nitrophenyl)sulfonyl]-2-(1H-pyrrolo[2,3-b]pyridin-5-yloxy)benzamide] it is less than 0.01 nM; for `CC1(C)CCC(CN2CCN(c3ccc(C(=O)NS(=O)(=O)c4ccc(NCC5COCCN5C5CCOCC5)c([N+](=O)[O-])c4)c(Oc4cnc5[nH]ccc5c4)c3)CC2)=C(c2ccc(Cl)cc2)C1` (stereo not drawn) [Example 169, 4-(4-{[2-(4-chlorophenyl)-4,4-dimethylcyclohex-1-en-1-yl]methyl}piperazin-1-yl)-N-[(3-nitro-4-{[(4-tetrahydro-2H-pyran-4-ylmorpholin-3-yl)methyl]amino}phenyl)sulfonyl]-2-(1H-pyrrolo[2,3-b]pyridin-5-yloxy)benzamide] it is 0.021 nM.
As to `CC1(C)CCC(CN2CCN(c3ccc(C(=O)NS(=O)(=O)c4ccc(NCC5COCCN5C5CCC5)c([N+](=O)[O-])c4)c(Oc4cnc5[nH]ccc5c4)c3)CC2)=C(c2ccc(Cl)cc2)C1` (stereo not drawn) [Example 170, 4-(4-{[2-(4-chlorophenyl)-4,4-dimethylcyclohex-1-en-1-yl]methyl}piperazin-1-yl)-N-[(4-{[(4-cyclobutylmorpholin-3-yl)methyl]amino}-3-nitrophenyl)sulfonyl]-2-(1H-pyrrolo[2,3-b]pyridin-5-yloxy)benzamide], the Ki was found to be 0.022 nM.
The figure for `CC1(C)CCC(CN2CCN(c3ccc(C(=O)NS(=O)(=O)c4ccc(NCC5COCCN5C5CCOC5)c([N+](=O)[O-])c4)c(Oc4cnc5[nH]ccc5c4)c3)CC2)=C(c2ccc(Cl)cc2)C1` (stereo not drawn) [Example 171, 4-(4-{[2-(4-chlorophenyl)-4,4-dimethylcyclohex-1-en-1-yl]methyl}piperazin-1-yl)-N-[(3-nitro-4-{[(4-tetrahydrofuran-3-ylmorpholin-3-yl)methyl]amino}phenyl)sulfonyl]-2-(1H-pyrrolo[2,3-b]pyridin-5-yloxy)benzamide] is less than 0.01 nM; for `CC1(C)CCC(CN2CCN(c3ccc(C(=O)NS(=O)(=O)c4ccc(NCC5CCN(C(CF)CF)CC5)c([N+](=O)[O-])c4)c(Oc4cnc5[nH]ccc5c4)c3)CC2)=C(c2ccc(Cl)cc2)C1` [Example 172, 4-(4-{[2-(4-chlorophenyl)-4,4-dimethylcyclohex-1-en-1-yl]methyl}piperazin-1-yl)-N-({4-[({1-[2-fluoro-1-(fluoromethyl)ethyl]piperidin-4-yl}methyl)amino]-3-nitrophenyl}sulfonyl)-2-(1H-pyrrolo[2,3-b]pyridin-5-yloxy)benzamide] it is less than 0.01 nM.
The figure for `CC1(C)CCC(CN2CCN(c3ccc(C(=O)NS(=O)(=O)c4ccc(OCC5(F)CCN(C6CC6)CC5)c([N+](=O)[O-])c4)c(Oc4cnc5[nH]ccc5c4)c3)CC2)=C(c2ccc(Cl)cc2)C1` [Example 173, 4-(4-{[2-(4-chlorophenyl)-4,4-dimethylcyclohex-1-en-1-yl]methyl}piperazin-1-yl)-N-({4-[(1-cyclopropyl-4-fluoropiperidin-4-yl)methoxy]-3-nitrophenyl}sulfonyl)-2-(1H-pyrrolo[2,3-b]pyridin-5-yloxy)benzamide] is less than 0.01 nM; for `COc1ccc(CNc2ccc(S(=O)(=O)NC(=O)c3ccc(N4CCN(CC5=C(c6ccc(Cl)cc6)CC(C)(C)CC5)CC4)cc3Oc3cnc4[nH]ccc4c3)cc2[N+](=O)[O-])cc1` [Example 174, 4-(4-{[2-(4-chlorophenyl)-4,4-dimethylcyclohex-1-en-1-yl]methyl}piperazin-1-yl)-N-({4-[(4-methoxybenzyl)amino]-3-nitrophenyl}sulfonyl)-2-(1H-pyrrolo[2,3-b]pyridin-5-yloxy)benzamide] it is less than 0.01 nM.
